As usually defined, the IC50 is the concentration at which inhibition is half-maximal. A low value points to greater potency in that assay.

Results on 5 compounds are retold here after BindingDB's records for patent US10807952 (Achillion Pharmaceuticals, Inc., 2020).

Molecules are shown by their SMILES.

The target in this experiment is Complement factor D (Homo sapiens, UniProt P00746). Kind of experiment: Not found.
Sequence of Complement factor D (P00746 whole entry): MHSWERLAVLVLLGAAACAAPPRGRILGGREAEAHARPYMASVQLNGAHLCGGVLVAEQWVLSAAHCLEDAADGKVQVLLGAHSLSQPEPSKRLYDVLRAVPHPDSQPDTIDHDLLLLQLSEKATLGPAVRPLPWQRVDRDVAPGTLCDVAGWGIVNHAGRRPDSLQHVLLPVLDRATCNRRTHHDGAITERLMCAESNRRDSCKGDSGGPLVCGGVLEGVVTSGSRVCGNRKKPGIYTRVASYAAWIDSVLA
Source text: Not found
In the case of `CC(=O)c1nn(CC(=O)N2C[C@H](F)C[C@H]2C(=O)Nc2cccc(-c3ccc4[nH]cnc4c3Cl)c2F)c2cnccc12` [US10807952, Cmp No. 1], the concentration for half-maximal inhibition (IC50) was less than 1000 nM.

As for `NC(=O)c1nn(CC(=O)N2C[C@H](F)C[C@H]2C(=O)Nc2cccc(-c3ccc4[nH]cnc4c3Cl)c2F)c2ccc(Br)cc12` [US10807952, Cmp No. 4], the IC50 was less than 1000 nM.

In the case of `NC(=O)c1nn(CC(=O)N2C[C@H](F)C[C@H]2C(=O)Nc2cccc(-c3nc4cccc(Cl)c4[nH]3)c2F)c2ccccc12` [US10807952, Cmp No. 27], the IC50 is less than 1000 nM.

`NC(=O)c1nn(CC(=O)N2C[C@H](F)C[C@H]2C(=O)Nc2cccc(Br)n2)c2cc(C(F)(F)F)sc12` [US10807952, Cmp No. 34] showed an IC50 of less than 1000 nM.

Consider `NC(=O)c1cccc(CC(=O)N2C[C@H](F)C[C@H]2C(=O)Nc2cccc(-c3ccccc3Cl)c2F)n1` [US10807952, Cmp No. 38], for which the half-inhibitory concentration (IC50) is less than 1000 nM.
